Values of other authors in patent US4733002A, “Lipoxygenase inhibitor” (Green Cross Corporation, priority 1984, dated 1988).

System: 5-lipoxygenase
Settings: prior art, statement in words

Row | Structure (SMILES) | 5-lipoxygenase inhibiting activity
1 | O=C(O)/C=C/c1ccc(O)c(O)c1 [caffeic acid] | not a satisfactory one
2 | COC(=O)C=Cc1ccc(O)c(O)c1 [its methyl ester] | not a satisfactory one
